{"source": "the NIST ThermoML archive (doi:10.1016/j.jct.2016.10.031)", "experiment": "molar heat capacity at constant pressure", "conditions": "101.33 kPa, Small (less than 1 g) adiabatic calorimetry", "note": "Where “and” joins values, the source holds several entries; their conditions need not be identical. Equal entries are not always repeated. Numbers after ± are expanded uncertainties."}
{"molecule": "CC(C)(C)c1ccc(Oc2ccc([N+](=O)[O-])cc2)cc1", "note": "[1-(tert-butyl)-4-(4-nitrophenoxy)benzene]", "values": [{"measurement": "molar heat capacity at constant pressure", "setting": "262.65 K, Crystal", "result": "316.28 ± 1.7", "unit": "J/K/mol"}, {"measurement": "molar heat capacity at constant pressure", "setting": "263.87 K, Crystal", "result": "317.61 ± 1.7", "unit": "J/K/mol"}, {"measurement": "molar heat capacity at constant pressure", "setting": "265.09 K, Crystal", "result": "319.11 ± 1.7", "unit": "J/K/mol"}, {"measurement": "molar heat capacity at constant pressure", "setting": "266.31 K, Crystal", "result": "320.52 ± 1.7", "unit": "J/K/mol"}, {"measurement": "molar heat capacity at constant pressure", "setting": "267.53 K, Crystal", "result": "322.93 ± 1.7", "unit": "J/K/mol"}, {"measurement": "molar heat capacity at constant pressure", "setting": "268.76 K, Crystal", "result": "323.52 ± 1.7", "unit": "J/K/mol"}, {"measurement": "molar heat capacity at constant pressure", "setting": "269.98 K, Crystal", "result": "324.6 ± 1.7", "unit": "J/K/mol"}, {"measurement": "molar heat capacity at constant pressure", "setting": "270 K, Crystal", "result": "324.6 ± 1.7", "unit": "J/K/mol"}, {"measurement": "molar heat capacity at constant pressure", "setting": "271.2 K, Crystal", "result": "326.68 ± 1.7", "unit": "J/K/mol"}, {"measurement": "molar heat capacity at constant pressure", "setting": "272.42 K, Crystal", "result": "327.92 ± 1.7", "unit": "J/K/mol"}, {"measurement": "molar heat capacity at constant pressure", "setting": "273.64 K, Crystal", "result": "329.92 ± 1.7", "unit": "J/K/mol"}, {"measurement": "molar heat capacity at constant pressure", "setting": "274.86 K, Crystal", "result": "331.08 ± 1.7", "unit": "J/K/mol"}, {"measurement": "molar heat capacity at constant pressure", "setting": "276.09 K, Crystal", "result": "332.58 ± 1.7", "unit": "J/K/mol"}, {"measurement": "molar heat capacity at constant pressure", "setting": "277.31 K, Crystal", "result": "333.99 ± 1.7", "unit": "J/K/mol"}, {"measurement": "molar heat capacity at constant pressure", "setting": "278.53 K, Crystal", "result": "335.41 ± 1.7", "unit": "J/K/mol"}, {"measurement": "molar heat capacity at constant pressure", "setting": "279.76 K, Crystal", "result": "336.82 ± 1.7", "unit": "J/K/mol"}, {"measurement": "molar heat capacity at constant pressure", "setting": "280 K, Crystal", "result": "336.82 ± 1.7", "unit": "J/K/mol"}, {"measurement": "molar heat capacity at constant pressure", "setting": "280.98 K, Crystal", "result": "337.98 ± 1.7", "unit": "J/K/mol"}, {"measurement": "molar heat capacity at constant pressure", "setting": "282.21 K, Crystal", "result": "338.98 ± 1.7", "unit": "J/K/mol"}, {"measurement": "molar heat capacity at constant pressure", "setting": "283.43 K, Crystal", "result": "341.06 ± 1.7", "unit": "J/K/mol"}, {"measurement": "molar heat capacity at constant pressure", "setting": "284.66 K, Crystal", "result": "342.56 ± 1.7", "unit": "J/K/mol"}, {"measurement": "molar heat capacity at constant pressure", "setting": "285.89 K, Crystal", "result": "344.14 ± 1.7", "unit": "J/K/mol"}, {"measurement": "molar heat capacity at constant pressure", "setting": "287.11 K, Crystal", "result": "345.22 ± 1.7", "unit": "J/K/mol"}, {"measurement": "molar heat capacity at constant pressure", "setting": "288.31 K, Crystal", "result": "347.05 ± 1.7", "unit": "J/K/mol"}, {"measurement": "molar heat capacity at constant pressure", "setting": "289.54 K, Crystal", "result": "348.38 ± 1.8", "unit": "J/K/mol"}, {"measurement": "molar heat capacity at constant pressure", "setting": "290 K, Crystal", "result": "349.21 ± 1.7", "unit": "J/K/mol"}, {"measurement": "molar heat capacity at constant pressure", "setting": "290.77 K, Crystal", "result": "349.96 ± 1.8", "unit": "J/K/mol"}, {"measurement": "molar heat capacity at constant pressure", "setting": "291.99 K, Crystal", "result": "351.2 ± 1.8", "unit": "J/K/mol"}, {"measurement": "molar heat capacity at constant pressure", "setting": "293.22 K, Crystal", "result": "353.2 ± 1.8", "unit": "J/K/mol"}, {"measurement": "molar heat capacity at constant pressure", "setting": "294.45 K, Crystal", "result": "354.45 ± 1.8", "unit": "J/K/mol"}, {"measurement": "molar heat capacity at constant pressure", "setting": "295.68 K, Crystal", "result": "355.94 ± 1.8", "unit": "J/K/mol"}, {"measurement": "molar heat capacity at constant pressure", "setting": "296.91 K, Crystal", "result": "357.69 ± 1.8", "unit": "J/K/mol"}, {"measurement": "molar heat capacity at constant pressure", "setting": "298.15 K, Crystal", "result": "359.02 ± 1.8 J/K/mol and 359.52 ± 1.9 J/K/mol"}, {"measurement": "molar heat capacity at constant pressure", "setting": "299.38 K, Crystal", "result": "360.35 ± 1.8", "unit": "J/K/mol"}, {"measurement": "molar heat capacity at constant pressure", "setting": "300 K, Crystal", "result": "361.85 ± 1.9", "unit": "J/K/mol"}, {"measurement": "molar heat capacity at constant pressure", "setting": "300.82 K, Crystal", "result": "363.01 ± 1.8", "unit": "J/K/mol"}, {"measurement": "molar heat capacity at constant pressure", "setting": "302.44 K, Crystal", "result": "364.84 ± 1.9", "unit": "J/K/mol"}, {"measurement": "molar heat capacity at constant pressure", "setting": "304.06 K, Crystal", "result": "367.75 ± 1.9", "unit": "J/K/mol"}, {"measurement": "molar heat capacity at constant pressure", "setting": "305.69 K, Crystal", "result": "370.08 ± 1.9", "unit": "J/K/mol"}, {"measurement": "molar heat capacity at constant pressure", "setting": "307.33 K, Crystal", "result": "372.49 ± 1.9", "unit": "J/K/mol"}, {"measurement": "molar heat capacity at constant pressure", "setting": "308.97 K, Crystal", "result": "374.65 ± 1.9", "unit": "J/K/mol"}, {"measurement": "molar heat capacity at constant pressure", "setting": "310 K, Crystal", "result": "376.4 ± 1.9", "unit": "J/K/mol"}, {"measurement": "molar heat capacity at constant pressure", "setting": "310.62 K, Crystal", "result": "377.23 ± 1.9", "unit": "J/K/mol"}, {"measurement": "molar heat capacity at constant pressure", "setting": "312.28 K, Crystal", "result": "379.97 ± 1.9", "unit": "J/K/mol"}, {"measurement": "molar heat capacity at constant pressure", "setting": "313.94 K, Crystal", "result": "385.62 ± 2", "unit": "J/K/mol"}, {"measurement": "molar heat capacity at constant pressure", "setting": "315.6 K, Crystal", "result": "386.71 ± 2", "unit": "J/K/mol"}, {"measurement": "molar heat capacity at constant pressure", "setting": "317.26 K, Crystal", "result": "392.78 ± 2", "unit": "J/K/mol"}, {"measurement": "molar heat capacity at constant pressure", "setting": "318.94 K, Crystal", "result": "397.18 ± 2", "unit": "J/K/mol"}, {"measurement": "molar heat capacity at constant pressure", "setting": "320 K, Crystal", "result": "390.45 ± 1.9", "unit": "J/K/mol"}, {"measurement": "molar heat capacity at constant pressure", "setting": "320.63 K, Crystal", "result": "403.09 ± 2.1", "unit": "J/K/mol"}, {"measurement": "molar heat capacity at constant pressure", "setting": "322.32 K, Crystal", "result": "412.15 ± 2.1", "unit": "J/K/mol"}, {"measurement": "molar heat capacity at constant pressure", "setting": "324.01 K, Crystal", "result": "420.79 ± 2.2", "unit": "J/K/mol"}, {"measurement": "molar heat capacity at constant pressure", "setting": "325.71 K, Crystal", "result": "441.66 ± 2.3", "unit": "J/K/mol"}, {"measurement": "molar heat capacity at constant pressure", "setting": "327.44 K, Crystal", "result": "477.92 ± 2.6", "unit": "J/K/mol"}, {"measurement": "molar heat capacity at constant pressure", "setting": "330 K, Crystal", "result": "404.5 ± 2.1", "unit": "J/K/mol"}, {"measurement": "molar heat capacity at constant pressure", "setting": "334.8 K, Crystal", "result": "411.23 ± 2.1", "unit": "J/K/mol"}, {"measurement": "molar heat capacity at constant pressure", "setting": "334.8 K, Liquid", "result": "446.57 ± 2.2", "unit": "J/K/mol"}, {"measurement": "molar heat capacity at constant pressure", "setting": "340 K, Liquid", "result": "449.23 ± 2.2", "unit": "J/K/mol"}, {"measurement": "molar heat capacity at constant pressure", "setting": "340.68 K, Liquid", "result": "450.39 ± 2.3", "unit": "J/K/mol"}, {"measurement": "molar heat capacity at constant pressure", "setting": "344.79 K, Liquid", "result": "449.98 ± 2.3", "unit": "J/K/mol"}, {"measurement": "molar heat capacity at constant pressure", "setting": "346.59 K, Liquid", "result": "452.64 ± 2.3", "unit": "J/K/mol"}, {"measurement": "molar heat capacity at constant pressure", "setting": "348.4 K, Liquid", "result": "452.39 ± 2.3", "unit": "J/K/mol"}, {"measurement": "molar heat capacity at constant pressure", "setting": "350 K, Liquid", "result": "454.39 ± 2.2", "unit": "J/K/mol"}, {"measurement": "molar heat capacity at constant pressure", "setting": "350.22 K, Liquid", "result": "454.88 ± 2.3", "unit": "J/K/mol"}, {"measurement": "molar heat capacity at constant pressure", "setting": "352.05 K, Liquid", "result": "456.21 ± 2.3", "unit": "J/K/mol"}, {"measurement": "molar heat capacity at constant pressure", "setting": "353.89 K, Liquid", "result": "457.05 ± 2.3", "unit": "J/K/mol"}, {"measurement": "molar heat capacity at constant pressure", "setting": "355.75 K, Liquid", "result": "456.96 ± 2.3", "unit": "J/K/mol"}, {"measurement": "molar heat capacity at constant pressure", "setting": "357.6 K, Liquid", "result": "459.21 ± 2.3", "unit": "J/K/mol"}, {"measurement": "molar heat capacity at constant pressure", "setting": "359.66 K, Liquid", "result": "460.7 ± 2.3", "unit": "J/K/mol"}, {"measurement": "molar heat capacity at constant pressure", "setting": "360 K, Liquid", "result": "459.54 ± 2.2", "unit": "J/K/mol"}, {"measurement": "molar heat capacity at constant pressure", "setting": "361.55 K, Liquid", "result": "460.21 ± 2.3", "unit": "J/K/mol"}, {"measurement": "molar heat capacity at constant pressure", "setting": "363.45 K, Liquid", "result": "461.62 ± 2.3", "unit": "J/K/mol"}, {"measurement": "molar heat capacity at constant pressure", "setting": "365.36 K, Liquid", "result": "462.28 ± 2.3", "unit": "J/K/mol"}, {"measurement": "molar heat capacity at constant pressure", "setting": "367.28 K, Liquid", "result": "462.87 ± 2.3", "unit": "J/K/mol"}, {"measurement": "molar heat capacity at constant pressure", "setting": "369.21 K, Liquid", "result": "463.95 ± 2.3", "unit": "J/K/mol"}, {"measurement": "molar heat capacity at constant pressure", "setting": "370 K, Liquid", "result": "464.7 ± 2.2", "unit": "J/K/mol"}, {"measurement": "molar heat capacity at constant pressure", "setting": "371.16 K, Liquid", "result": "464.86 ± 2.3", "unit": "J/K/mol"}]}
